Measurements published in patent US5616563A, “Glutathione N-hydroxycarbamoyl thioesters and method of inhibiting neoplastic growth” (University of Maryland Baltimore Campus, priority 1994, dated 1997).
Blank lines part the entries; values can stand above or below the compound they belong to.

Assays:
[1] = tested on: Human Leukemia 60 (HL60) cells; assay: Growth inhibition and kill of human leukemia 60 cells; format: cell-based; details: HL60, 72 hr. incubation; for IC50: Homo sapiens, HL-60, read-out: GI (concentration for 50% cell growth inhibition)
Protocol: The observation that compounds 2 and 6(c) inhibit tumor cell growth, but were not strongly cytotoxic to tumor cells at the concentrations tested, prompted the synthesis of diethyl esters of compounds 6(a), 6(b), and 6(c). These derivatives were then tested with human leukemia cells (HL60 cells) grown in RPMI/fetal calf serum medium at 37° C.
^c Concentration for 50% cell kill.

[2] = of substituent R; cited from earlier work
[3] = biological target: bovine liver glyoxalase II (Bos taurus, UniProt Q3B7M2); assay: Substrate and inhibition studies with bovine liver glyoxalase II; details: for Vm (rel.): relative to Vm for S-D-lactoylglutathione
Protocol: The standard errors for Vm and Km were obtained by analysis of the initial rate data using the HYPER program of Cleland.
^a HEPES buffer (100 mM, pH 7.4), 25° C.
^b Listed values are relative to Vm for SD-lactoylglutathione.
^c Inhibition constants obtained from using the enediol analogs as

[4] = tested on: human erythrocytes; assay: Erythrocyte uptake of 35S-labeled compounds
Protocol: In order to test the ability of human erythrocytes to take up the above enediol and its ethyl ester derivative, suspensions of washed human erythrocytes were separately incubated with [^35 S] GSH, [^35 S]S-(N-hydroxy N-methylcarbamoyl) glutathione, and with [^35 S] S-(N-hydroxy N-methylcarbamoyl) glutathione[glycyl]-O-ethyl ester. The tests were conducted with 50:50 (v:v) erythrocytes in PBS buffer at 37° C. in the presence of 8.5 mM extracellular [^35 S] labeled compounds.

[5] = HEPES buffer (100 mM, pH 7.4), 25° C.
[6] = 0 h, 8.5 mM extracellular, 37° C.

SMILES: N[C@@H](CCC(=O)N[C@@H](CSC(=O)N(O)c1ccccc1)C(=O)NCC(=O)O)C(=O)O [Compound 6a, S-(N-Hydroxy N-Phenylcarbamoyl) Glutathione]
- LC50 (concentration for 50% cell kill) [1]: > 1000 µM
- TGI (concentration for total cell growth inhibition) [1]: > 1000 µM
- IC50 [1]: ~100 µM
- π (Hansch hydrophobicity constant) [2]: 2.13
- Ki [3]: 11 ± 1.2 µM
- Km ([3]; as substrate, HEPES buffer (100 mM, pH 7.4), 25° C.): 13 ± 2 µM
- Vm (rel.) [3, 5]: (0.46 ± 0.01) × 10^-5

- Ki [3]: 3.4 ± 0.8 µM
- Vm (rel.) [3, 5]: (1.5 ± 0.3) × 10^-5
SMILES: N[C@@H](CCC(=O)N[C@@H](CSC(=O)N(O)c1ccc(Cl)cc1)C(=O)NCC(=O)O)C(=O)O [Compound 6b, S-(N-Hydroxy-N-4-chlorophenylcarbamoyl) glutathione]
- LC50 (concentration for 50% cell kill) [1]: > 1000 µM
- TGI (concentration for total cell growth inhibition) [1]: > 1000 µM
- IC50 [1]: ~100 µM
- π (Hansch hydrophobicity constant) [2]: 3.04

- diffusion rate into erythrocytes relative to [35S] 2 [4]: ~ 2 fold
- Extracellular Total 35S species ([4]; 0 h): 8.54 mM
- Extracellular [35S] S-(N-hydroxy N-methylcarbamoyl) glutathione ([4]; 0 h): 1.27 mM
- Extracellular [35S] S-(N-hydroxy N-methylcarbamoyl) glutathione glycyl-O-ethyl ester ([4]; 0 h): 7.22 mM
- Intracellular Total 35S species [4, 6]: ~ 0.01 mM
- Extracellular [35S] S-(N-hydroxy N-methylcarbamoyl) glutathione ([4]; 0 h, listed as [^35 S] 2(Et)): 1.3 mM
- Extracellular Total 35S species ([4]; 6 h): 8.60 mM
- Extracellular [35S] S-(N-hydroxy N-methylcarbamoyl) glutathione ([4]; 6 h): 1.27 mM
- Extracellular [35S] S-(N-hydroxy N-methylcarbamoyl) glutathione glycyl-O-ethyl ester ([4]; 6 h): 7.17 mM
- Intracellular Total 35S species ([4]; 6 h): 0.05 mM
- Intracellular [35S] S-(N-hydroxy N-methylcarbamoyl) glutathione ([4]; 6 h): ~ 0.01 mM
- Intracellular [35S] S-(N-hydroxy N-methylcarbamoyl) glutathione glycyl-O-ethyl ester ([4]; 6 h): ~ 0.01 mM
- Extracellular Total 35S species ([4]; 12 h): 8.62 mM
- Extracellular [35S] S-(N-hydroxy N-methylcarbamoyl) glutathione ([4]; 12 h): 1.42 mM
- Extracellular [35S] S-(N-hydroxy N-methylcarbamoyl) glutathione glycyl-O-ethyl ester ([4]; 12 h): 7.02 mM
- Intracellular Total 35S species ([4]; 12 h): 0.07 mM
- Intracellular [35S] S-(N-hydroxy N-methylcarbamoyl) glutathione ([4]; 12 h): 0.02 mM
- Intracellular [35S] S-(N-hydroxy N-methylcarbamoyl) glutathione glycyl-O-ethyl ester ([4]; 12 h): 0.03 mM
- Extracellular Total 35S species ([4]; 24 h): 8.49 mM
- Extracellular [35S] S-(N-hydroxy N-methylcarbamoyl) glutathione ([4]; 24 h): 1.65 mM
- Extracellular [35S] S-(N-hydroxy N-methylcarbamoyl) glutathione glycyl-O-ethyl ester ([4]; 24 h): 6.62 mM
- Intracellular Total 35S species ([4]; 24 h): 0.20 mM
- Intracellular [35S] S-(N-hydroxy N-methylcarbamoyl) glutathione ([4]; 24 h): 0.05 mM
- Intracellular [35S] S-(N-hydroxy N-methylcarbamoyl) glutathione glycyl-O-ethyl ester ([4]; 24 h): 0.12 mM
- Extracellular Total 35S species ([4]; 36 h): 8.09 mM
- Extracellular [35S] S-(N-hydroxy N-methylcarbamoyl) glutathione ([4]; 36 h): 1.83 mM
- Extracellular [35S] S-(N-hydroxy N-methylcarbamoyl) glutathione glycyl-O-ethyl ester ([4]; 36 h): 6.01 mM
- Intracellular Total 35S species ([4]; 36 h): 0.45 mM
- Intracellular [35S] S-(N-hydroxy N-methylcarbamoyl) glutathione ([4]; 36 h): 0.14 mM
- Intracellular [35S] S-(N-hydroxy N-methylcarbamoyl) glutathione glycyl-O-ethyl ester ([4]; 36 h): 0.28 mM
- Extracellular Total 35S species ([4]; 48 h): 7.90 mM
- Extracellular [35S] S-(N-hydroxy N-methylcarbamoyl) glutathione ([4]; 48 h): 1.89 mM
- Extracellular [35S] S-(N-hydroxy N-methylcarbamoyl) glutathione glycyl-O-ethyl ester ([4]; 48 h): 5.70 mM
- Intracellular Total 35S species ([4]; 48 h): 0.67 mM
- Intracellular [35S] S-(N-hydroxy N-methylcarbamoyl) glutathione ([4]; 48 h): 0.24 mM
- Intracellular [35S] S-(N-hydroxy N-methylcarbamoyl) glutathione glycyl-O-ethyl ester ([4]; 48 h): 0.39 mM
- final intracellular [35S] 2 relative to that expected from import of contaminating [35S] 2 ([4]; 48 h): about 3 fold
- Extracellular [35S] S-(N-hydroxy N-methylcarbamoyl) glutathione ([4]; 48 h, listed as [^35 S] 2(Et)): 1.9 mM
SMILES: CCOC(=O)CNC(=O)[C@H](CSC(=O)N(C)O)NC(=O)CC[C@H](N)C(=O)O [[^35 S] .box-solid., [^35 S] S-(N-Hydroxy N-Methyl Carbamoyl) Glutathione [Glycyl]-O-Ethyl Ester]

SMILES: CN(O)C(=O)SC[C@H](NC(=O)CC[C@H](N)C(=O)O)C(=O)NCC(=O)O [[^35 S] .circle-solid., [^35 S] S-(N-Hydroxy N-Methylcarbamoyl) Glutathione]
- Extracellular Total 35S species ([4]; 0 h): 8.44 mM
- Extracellular [35S] GSH + [35S] GSSG ([4]; 0 h): ~ 0.01 mM
- Extracellular [35S] S-(N-hydroxy N-methylcarbamoyl) glutathione ([4]; 0 h): 8.20 mM
- Intracellular Total 35S species [4, 6]: ~ 0 mM
- Extracellular Total 35S species ([4]; 6 h): 8.57 mM
- Extracellular [35S] GSH + [35S] GSSG ([4]; 6 h): 0.15 mM
- Extracellular [35S] S-(N-hydroxy N-methylcarbamoyl) glutathione ([4]; 6 h): 8.32 mM
- Intracellular Total 35S species ([4]; 6 h): 0.02 mM
- Extracellular Total 35S species ([4]; 12 h): 8.67 mM
- Extracellular [35S] GSH + [35S] GSSG ([4]; 12 h): 0.14 mM
- Extracellular [35S] S-(N-hydroxy N-methylcarbamoyl) glutathione ([4]; 12 h): 8.39 mM
- Intracellular Total 35S species ([4]; 12 h): 0.03 mM
- Intracellular [35S] GSH + [35S] GSSG ([4]; 12 h): ~ 0.01 mM
- Intracellular [35S] S-(N-hydroxy N-methylcarbamoyl) glutathione ([4]; 12 h): ~ 0.01 mM
- Extracellular Total 35S species ([4]; 24 h): 8.24 mM
- Extracellular [35S] GSH + [35S] GSSG ([4]; 24 h): 0.14 mM
- Extracellular [35S] S-(N-hydroxy N-methylcarbamoyl) glutathione ([4]; 24 h): 7.96 mM
- Intracellular Total 35S species ([4]; 24 h): 0.12 mM
- Intracellular [35S] GSH + [35S] GSSG ([4]; 24 h): 0.03 mM
- Intracellular [35S] S-(N-hydroxy N-methylcarbamoyl) glutathione ([4]; 24 h): 0.08 mM
- Extracellular Total 35S species ([4]; 36 h): 8.24 mM
- Extracellular [35S] GSH + [35S] GSSG ([4]; 36 h): 0.13 mM
- Extracellular [35S] S-(N-hydroxy N-methylcarbamoyl) glutathione ([4]; 36 h): 7.96 mM
- Intracellular Total 35S species ([4]; 36 h): 0.31 mM
- Intracellular [35S] GSH + [35S] GSSG ([4]; 36 h): 0.04 mM
- Intracellular [35S] S-(N-hydroxy N-methylcarbamoyl) glutathione ([4]; 36 h): 0.26 mM
- Extracellular Total 35S species ([4]; 48 h): 8.50 mM
- Extracellular [35S] GSH + [35S] GSSG ([4]; 48 h): 0.14 mM
- Extracellular [35S] S-(N-hydroxy N-methylcarbamoyl) glutathione ([4]; 48 h): 8.19 mM
- Intracellular Total 35S species ([4]; 48 h): 0.44 mM
- Intracellular [35S] GSH + [35S] GSSG ([4]; 48 h): 0.04 mM
- Intracellular [35S] S-(N-hydroxy N-methylcarbamoyl) glutathione ([4]; 48 h): 0.37 mM

- Extracellular Total 35S species ([4]; 0 h): 8.48 mM
- Extracellular [35S] GSH ([4]; 0 h): 7.95 mM
- Extracellular [35S] GSSG ([4]; 0 h): 0.43 mM
- Intracellular Total 35S species [4, 6]: ~ 0 mM
- Extracellular Total 35S species ([4]; 6 h): 8.56 mM
- Extracellular [35S] GSH ([4]; 6 h): 7.90 mM
- Extracellular [35S] GSSG ([4]; 6 h): 0.53 mM
- Intracellular Total 35S species ([4]; 6 h): 0.04 mM
- Intracellular [35S] GSH ([4]; 6 h): 0.02 mM
- Intracellular [35S] GSSG ([4]; 6 h): 0.02 mM
- Extracellular Total 35S species ([4]; 12 h): 8.61 mM
- Intracellular Total 35S species ([4]; 12 h): 0.05 mM
- Extracellular Total 35S species ([4]; 24 h): 8.38 mM
- Intracellular Total 35S species ([4]; 24 h): 0.13 mM
- Extracellular Total 35S species ([4]; 36 h): 8.37 mM
- Intracellular Total 35S species ([4]; 36 h): 0.28 mM
- Extracellular Total 35S species ([4]; 48 h): 8.23 mM
- Extracellular [35S] GSH ([4]; 48 h): 5.31 mM
- Extracellular [35S] GSSG ([4]; 48 h): 2.49 mM
- Intracellular Total 35S species ([4]; 48 h): 0.48 mM
- Intracellular [35S] GSH ([4]; 48 h): 0.10 mM
- Intracellular [35S] GSSG ([4]; 48 h): 0.27 mM
SMILES: N[C@@H](CCC(=O)N[C@@H](C[35SH])C(=O)NCC(=O)O)C(=O)O [[^35 S] GSH, reference compound]
